Measurements as given in US9271962B2 (NORTHEASTERN UNIVERSITY, priority 2008, dated 2016).
pIC50: −log10 of the molar value.

Columns and labels:
hMGL = molecular target: T1, hMGL (Homo sapiens, UniProt Q99685); test: Fluorescent enzyme assay, MGL (AHMMCE hydrolysis); format: biochemical; conditions: for inhibition at 0.01 µM: 10 nM inhibitor, read-out: % Inhibition of Enzyme by inhibitor, MGL, 10 nM; for inhibition at 0.01 µM / inhibition at 1 µM: screening assay; for inhibition at 1 µM: 1000 nM inhibitor; for inhibition at 100 µM: 100 uM inhibitor, printed in the 1000 nM column
T1 construct: A full-length cDNA clone of the human MGL transcript variant 1; made in house; host or cells: E. coli BL21 (DE3)
T1 sequence (Q99685 2-303 limits assumed): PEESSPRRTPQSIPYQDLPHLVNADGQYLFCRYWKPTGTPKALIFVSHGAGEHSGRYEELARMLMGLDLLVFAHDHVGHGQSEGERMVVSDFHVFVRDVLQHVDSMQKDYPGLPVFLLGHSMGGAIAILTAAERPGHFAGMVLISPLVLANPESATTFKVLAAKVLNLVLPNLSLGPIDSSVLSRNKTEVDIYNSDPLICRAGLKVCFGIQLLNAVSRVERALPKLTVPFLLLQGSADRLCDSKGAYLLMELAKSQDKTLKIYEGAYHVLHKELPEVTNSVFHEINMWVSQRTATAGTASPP
Protocol: (§1) Some analogs were tested for their FAAH/MGL inhibitory activity, which is expressed as % of inhibition (Tables 2, 3, and 4 below). The percentage of inhibition results from three-point assay (three concentrations of inhibitor are used) and it is less accurate (preliminary screening) than the IC50/Ki values that are determined from eight-point assay (eight different concentrations of inhibitor were used). The percentage of inhibition describes the percentage by which the inhibitor reduces the velocity/rate of AAMCA (arachidonoyl-7-amino-4-methylcoumarin amide) or AHMMCE (arachidonoyl-7-hydroxy-6-methoxy-4-methylcoumarin ester) hydrolysis by FAAH or MGL respectively. The IC50 is the concentration of the inhibitor, which results in 50% inhibition of the velocity/rate of AAMCA (arachidonoyl 7-amino-4-methylcoumarin amide) hydrolysis by FAAH or AHMMCE (Arachidonoyl, 7-hydroxy-6-methoxy-4-methylcoumarin ester) hydrolysis by MGL. The Ki value is the affinity constant and describes the ability of the compounds to inhibit the function of FAAH or MGL. The lower the IC50/Ki values, the higher the affinity of the inhibitor for the enzyme and the higher its inhibitory activity. A detailed description of the methods used to test inhibitory activity of compounds is given below.
A full-length cDNA clone of the human MGL transcript variant 1 (gi: 51242951) was obtained from OriGene Technologies (Rockville, Md.). The coding part of the MGL sequence (except the translation initiation codon ATG) was amplified by a polymerase chain reaction (PCR) using forward […] and reverse […] primers containing PmlI and SacI restriction enzyme recognition sites, respectively. iProof high-fidelity DNA polymerase (Bio-Rad, Hercules, Calif.) was used in the PCR amplification with 33 cycles, each consisting of denaturation at 94° C. for 10 s, annealing at 55° C. for 33 s, and extension at 72° C. for 1 min. The PCR product and pET45b vector were digested with PmlI and SacI restriction enzymes, and the vector was dephosphorylated with CIP followed by in-gel purification using the MinElute Gel Extraction Kit (Qiagen Corp., Valencia, Calif.). The fragment was inserted into the vector directly downstream after the 6 histidine and valine codons, generating the construct pET45His6hMGL for expression of hMGL containing an N-terminal His6-tag. GC10 E. coli cells were used for DNA transformation and plasmid propagation. Mini- and midi-scale plasmid DNA preparations were performed using a GenElute Plasmid Miniprep Kit (Sigma) and PureYield Plasmid Midiprep System (Promega, Madison, Wis.), respectively. In-frame vector-fragment junctions and the coding sequence of the recombinant gene were confirmed by sequencing. The pET45His6hMGL construct was transformed into BL21 (DE3) and Origami (DE3) E. coli expression strains (Novagen, Madison, Wis.).
A single E. coli BL21 (DE3) colony containing the pET45His6hMGL plasmid was inoculated into 12 mL of Luria broth-ampicillin medium and grown overnight with shaking (250 rpm) at 37° C. The next morning, 10 mL of this culture was inoculated into 1 L of fresh Luria broth-ampicillin and allowed to grow until culture turbidity reached an (OD)600 of 0.6-0.8, at which time expression from the T7 promoter was induced by adding isopropyl-β-D-thio-galactopyranoside (1 mM). After 5 h induction, the cells were harvested by centrifugation at 5,000 g for 10 min at 4° C., washed with PBS, and held at −80° C. Five grams (wet-weight) of cells were resuspended in 50 mL lysis buffer (100 mM NaCl; 50 mM Tris, pH 8.0) supplemented with Triton X-100 (0.5%), lysozyme (0.2 mg/mL), and DNase I (25 μg/ml) and disrupted on ice by three, one-min sonication cycles, each consisting of 1-sec sonication bursts at 50 W power separated from each other by a 2-sec interval (Vibra-Cell 500 W, Sonics, Newtown, Conn.). The cell lysate was centrifuged at 10,000 g for 30 min at 4° C. […]

ΔTM rFAAH = molecular target: T2, ΔTM rFAAH (Rattus norvegicus, UniProt P97612); test: Fluorescent enzyme assay, FAAH (AAMCA hydrolysis); format: biochemical; conditions: AAMCA substrate; for inhibition at 0.01 µM: 10 nM inhibitor; for inhibition at 0.01 µM / inhibition at 1 µM: screening assay; for inhibition at 1 µM: 1000 nM inhibitor
T2 construct: 15 ug of ΔTM rFAAH (cell lysate obtained by recombinant procedure); made in house
T2 sequence (P97612 30-579 limits assumed): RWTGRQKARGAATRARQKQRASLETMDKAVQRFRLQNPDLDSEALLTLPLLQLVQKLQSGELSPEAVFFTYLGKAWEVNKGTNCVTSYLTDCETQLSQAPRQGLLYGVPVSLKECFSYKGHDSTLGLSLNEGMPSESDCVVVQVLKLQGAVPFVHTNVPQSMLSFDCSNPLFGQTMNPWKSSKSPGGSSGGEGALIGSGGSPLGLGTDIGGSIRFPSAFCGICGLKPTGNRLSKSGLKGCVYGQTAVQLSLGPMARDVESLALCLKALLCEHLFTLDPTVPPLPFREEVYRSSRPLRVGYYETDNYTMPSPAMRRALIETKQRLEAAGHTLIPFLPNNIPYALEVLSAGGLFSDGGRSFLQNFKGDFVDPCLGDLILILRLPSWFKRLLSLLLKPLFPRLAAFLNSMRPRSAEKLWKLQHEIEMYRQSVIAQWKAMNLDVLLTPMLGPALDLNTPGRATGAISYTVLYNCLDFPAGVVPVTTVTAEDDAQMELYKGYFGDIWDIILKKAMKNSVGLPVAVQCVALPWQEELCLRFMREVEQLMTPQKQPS
Protocol: as §1
The enzyme (FAAH and MGL) assays were performed in 96 well plates (Coster #3650) in a total volume of 200 uL. Fluorogenic substrate AAMCA (arachidonoyl 7-amino-4-methylcoumarin amide) for FAAH and AHMMCE (arachidonoyl 7-hydroxy-6-methoxy-4-methylcoumarin ester) for MGL were used using BioTek Synergy HT Microplate Reader. Compounds and substrates were dissolved in DMSO provide a 10 mM stock solution and kept as a stock solution at −20° C. until used for assay. Stock solutions were thawed and reconstituted in 50:50 DMSO/assay buffer to a final DMSO concentration per well below 8%. This ensures that the compounds and substrate are in solution during assay. […] Appropriate substrate was added to adjust the final concentration in each well to 20 uM for FAAH (2× Km) and 10 uM for MGL (1×KM). Fluorescence readings were performed at λex=360/λem=460 for 4 h using Kinetic assay protocol at every 20 min (the fluorescent product coumarin produced is quantitated by this procedure). The readings at 3 h for FAAH and 2 h for MGL (linear maximum hydrolysis kinetics of enzyme on substrate) were used to calculate percent inhibition based on controls. Compounds which had more than 50 percent inhibition at 10 uM were selected for dose response study to determine IC50 values. The dose response at 8 concentration points was performed as with the screening assay except that compounds were serially diluted to 8 concentration points which were chosen based on IC50 value, which were calculated from the screening assay results. Assays are run twice in triplicates and Graphpad Prism software is used to plot inhibition data to obtain IC50 values.

Compound	inhibition at 0.01 µM (hMGL; AHMMCE substrate) [%]	inhibition at 0.01 µM (ΔTM rFAAH) [%]	other results
CN(C)C(=O)n1ncnn1 [Compound 1a, N,N-dimethyl-2H-tetrazole-2-carboxamide]	58	73	–
CN(C)C(=O)n1cnnn1 [Compound 1b]	13	51	–
CN(C)C(=O)n1nnnc1-c1cc2ccccc2[nH]1 [Compound 3b, 5-(1H-indol-2-yl)-N,N-dimethyl-2H-tetrazole-1-carboxamide]	92	97	–
CN(C)C(=O)n1nnnc1CC(=O)c1ccccc1 [Compound 4, N,N-dimethyl-5-(2-oxo-2-phenylethyl)-1H-tetrazole-1-carboxamide]	90	100	–
CN(C)C(=O)n1nnnc1Cc1cccnc1 [Compound 5, N,N-dimethyl-5-(pyridin-3-yl-methyl)-1H-tetrazole-1-carboxamide]	81	84	–
O=C(N1CCOCC1)n1nnc(Cc2ccc(Cl)cc2Cl)n1 [Compound 6, 4-{[5-(2,4-dichlorobenzyl)-tetrazol-2-yl]carbonyl}morpholine]	88	94	–
CN(C(=O)n1nnc(Cc2ccc(Cl)cc2Cl)n1)c1ccccc1 [Compound 7a, 5-(2,4-dichlorobenzyl)-N-methyl-N-phenyl-2H-tetrazole-2-carboxamide]	58	84	–
CN(C(=O)n1nnnc1Cc1ccc(Cl)cc1Cl)c1ccccc1 [Compound 7b]	8	89	–
O=C(N(c1ccccc1)c1ccccc1)n1nnc(Cc2ccc(Cl)cc2Cl)n1 [Compound 8a, 5-(2,4-dichlorobenzyl)-N,N-diphenyl-2H-tetrazole-2-carboxamide]	–	–	inhibition at 1 µM (hMGL; AHMMCE substrate): 100%; pIC50 (hMGL; eight-point dose response, AHMMCE substrate): 7.40; inhibition at 1 µM (ΔTM rFAAH): 66%; pIC50 (ΔTM rFAAH; eight-point dose response): 5.89
O=C(N(c1ccccc1)c1ccccc1)n1nnnc1Cc1ccc(Cl)cc1Cl [Compound 8b]	–	–	inhibition at 1 µM (hMGL; AHMMCE substrate): 21%; inhibition at 1 µM (ΔTM rFAAH): 9%
CCN(CC)C(=O)n1nnc(Cc2ccc(Cl)cc2Cl)n1 [Compound 9, 5-(2,4-dichlorobenzyl)-N,N-diethyl-tetrazole-2-carboxamide]	43	95	–
CC(C)N(C(=O)n1nnc(Cc2ccc(Cl)cc2Cl)n1)C(C)C [Compound 10, 5-(2,4-dichlorobenzyl)-N,N-diisopropyl-tetrazole-2-carboxamide]	–	–	inhibition at 1 µM (hMGL; AHMMCE substrate): 11%; inhibition at 1 µM (ΔTM rFAAH): 94%
O=C(N1CCC2(CC1)OCCO2)n1nnc(Cc2ccc(Cl)cc2Cl)n1 [Compound 14]	–	–	inhibition at 1 µM (hMGL; AHMMCE substrate): 52%; inhibition at 1 µM (ΔTM rFAAH): 97%
O=C(N1CCN(Cc2ccccc2)CC1)n1nnc(Cc2ccc(Cl)cc2Cl)n1 [Compound 15]	–	–	inhibition at 1 µM (hMGL; AHMMCE substrate): 63%; inhibition at 1 µM (ΔTM rFAAH): 95%
CN(C)C(=O)n1nnc(Cc2ccc(Br)cc2)n1 [Compound 16a, 5-(4-bromobenzyl)-N,N-dimethyl-2H-tetrazole-2-carboxamide]	98	92	–
CN(C)C(=O)n1nnnc1Cc1ccc(Br)cc1 [Compound 16b]	64	92	–
CN(C)C(=O)n1nnc(Cc2ccc(Cl)cc2Cl)n1 [Compound 17a, 5-(2,4-dichlorobenzyl)-N,N-dimethyl-2H-tetrazole-2-carboxamide]	99	93	–
CN(C)S(=O)(=O)n1nnc(Cc2ccc(-c3ccccc3)cc2)n1 [Compound 38a]	–	–	inhibition at 1 µM (ΔTM rFAAH): 25%
CN(C)C(=O)n1nnc(Cc2ccc(-c3cccnc3)cc2)n1 [Compound 43, N,N-dimethyl-5-(4-(pyridin-3-yl)benzyl)-2H-tetrazole-2-carboxamide]	–	–	inhibition at 1 µM (ΔTM rFAAH): 34%
CN(C)C(=O)n1nnc(Cc2ccccc2Cl)n1 [Compound 45, 5-(2-chlorobenzyl)-N,N-dimethyl-2H-tetrazole-2-carboxamide]	93	–	–
CN(C)C(=O)n1nnc(C(F)(F)c2ccccc2)n1 [Compound 46, 5-(difluoro(phenyl)methyl)-N,N-dimethyl-2H-tetrazole-2-carboxamide]	2	–	inhibition at 1 µM (hMGL; AHMMCE substrate): 92%
CN(C)C(=O)n1cnc(-c2ccccc2)n1 [Compound 52, N,N-dimethyl-3-phenyl-1H-1,2,4-triazole-1-carboxamide]	2	–	inhibition at 1 µM (hMGL; AHMMCE substrate): 87%
O=C(N1CCN(Cc2ccc3ccccc3n2)CC1)n1cnc(-c2ccccc2)c1 [Compound 64, (4-phenyl-1H-imidazol-1-yl)(4-(quinolin-2-ylmethyl)piperazin-1-yl)methanone]	–	–	inhibition at 100 µM (hMGL): 19%
O=C(N1CCN(Cc2ccc3ccccc3n2)CC1)n1nnc(Cc2ccc(Cl)cc2Cl)n1 [Compound 65, (5-(2,4-dichlorobenzyl)-2H-tetrazol-2-yl)(4-(quinolin-2-ylmethyl)piperazin-1-yl)methanone]	–	–	inhibition at 100 µM (hMGL): 68%
